Data taken from US11026963B2, “Senolytic compositions and uses thereof” (Rubedo Life Sciences, Inc., priority 2018, dated 2021).

test system: Normal human fibroblasts (IMR90); experiment: Compound toxicity towards normal proliferative, senescent or quiescent fibroblasts (XTT cell viability assay); format: cell-based; settings: IC50 against normal, proliferating cells divided by IC50 versus senescent (doxorubicin-induced) cells, three days treatment
Protocol: Normal human fibroblasts (IMR90) and patient-derived β-galactosidase (GLB1) or α-fucosidase (FUCA1) deficient cells were used to determine change in cell viability after exposure to compound. Cells were cultured with DMEM and 10% heat inactivated FBS under a controlled atmosphere of 5% carbon dioxide and 5% oxygen, […] and confirmed by the absence of senescence associated β-galactosidase (SA-β-Gal) staining and the capacity to re-enter the cell cycle. Senescence was induced by treatment with doxorubicin and confirmed by SA-β-Gal positive staining and the lack of DNA replication. Cells were treated with compound for three days. Cell viability was determined by mitochondrial dehydrogenase activity (XTT assay. Cayman Chemical) at ten concentrations of the tested compound. To generate dose-response curves, data was fitted to a four-parameter Hill function and the IC50 was determined at Y=0.5 viability. The senolytic index (S.I.) for each compound was determined by dividing the IC50 against normal, proliferating cells by the IC50 versus senescent cells. Senolytic index data is shown in Table 1 with compounds having S.I.<1 (−), S.I>1 (+), S.I.>5 (++) and S.I>10 (+++).

| SMILES | Senolytic Index (S.I.) |
| --- | --- |
| CC(C)c1cc(C(=O)N2Cc3ccc(CN4CCN(C)CC4)cc3C2)c(O)cc1O[C@@H]1O[C@H](CO)[C@H](O)[C@H](O)[C@H]1O (single isomer, unassigned) [(46)] | − (S.I.<1 (−)) |
| CCNC(=O)c1noc(-c2cc(C(C)C)c(O[C@@H]3O[C@H](CO)[C@H](O)[C@H](O)[C@H]3O)cc2O)c1-c1ccc(CN2CCOCC2)cc1 (single isomer, unassigned) [(48)] | + (S.I>1 (+)) |
| CCNC(=O)c1noc(-c2cc(C(C)C)c(O)cc2O[C@@H]2O[C@H](CO)[C@H](O)[C@H](O)[C@H]2O)c1-c1ccc(CN2CCOCC2)cc1 (single isomer, unassigned) [(49)] | + (S.I>1 (+)) |
| CC(C)c1cc(-c2n[nH]c(=O)n2-c2ccc3c(ccn3C)c2)c(O)cc1O[C@@H]1O[C@H](CO)[C@H](O)[C@H](O)[C@H]1O (single isomer, unassigned) [(127)] | + (S.I>1 (+)) |
| CC(C)c1cc(-c2n[nH]c(=O)n2-c2ccc3c(ccn3C)c2)c(O[C@@H]2O[C@H](CO)[C@H](O)[C@H](O)[C@H]2O)cc1O (single isomer, unassigned) [(128)] | − (S.I.<1 (−)) |
| Cc1[nH]c2ccccc2c1CCNCc1ccc(/C=C/C(=O)NO[C@@H]2O[C@H](CO)[C@H](O)[C@H](O)[C@H]2O)cc1 [(26), (E)-3-(4-(((2-(2-Methyl-1H-indol-3-yl)ethyl)amino)methyl)phenyl)-N-(((2S,3R,4S,5R,6R)-3,4,5-trihydroxy-6-(hydroxymethyl)tetrahydro-2H-pyran-2-yl)oxy)acrylamide] | ++ (S.I.>5 (++)) |
| Cc1[nH]c2ccccc2c1CCNCc1ccc(/C=C/C(=O)NO[C@@H]2O[C@@H](C)[C@@H](O)[C@@H](O)[C@@H]2O)cc1 [(35), (E)-3-(4-(((2-(2-Methyl-1H-indol-3-yl)ethyl)amino)methyl)phenyl)-N-(((2S,3S,4R,5S,6S)-3,4,5-trihydroxy-6-methyltetrahydro-2H-pyran-2-yl)oxy)acrylamide] | + (S.I>1 (+)) |
| CC(C)c1cc(C(=O)N2Cc3ccc(CN4CCN(C)CC4)cc3C2)c(O[C@@H]2O[C@H](CO)[C@H](O)[C@H](O)[C@H]2O)cc1O [(47)] | − (S.I.<1 (−)) |
| Cn1cc(CNCC2CCN(c3ncc(C(=O)NO[C@@H]4O[C@H](CO)[C@H](O)[C@H](O)[C@H]4O)cn3)CC2)c2ccccc21 [(112), 2-(4-((((1-methyl-1H-indol-3-yl)methyl)amino)methyl)piperidin-1-yl)-N-(((2S,3R,4S,5R,6R)-3,4,5-trihydroxy-6-(hydroxymethyl)tetrahydro-2H-pyran-2-yl)oxy)pyrimidine-5-carboxamide] | + (S.I>1 (+)) |
| CC(=O)OC[C@H]1O[C@@H](ONC(=O)c2cnc(N3CCC(CNCc4cn(C)c5ccccc45)CC3)nc2)[C@H](OC(C)=O)[C@@H](OC(C)=O)[C@H]1OC(C)=O [(114), (2R,3S,4S,5R,6S)-2-(Acetoxymethyl)-6-((2-(4-((((1-methyl-1H-indol-3-yl)methyl)amino)methyl)piperidin-1-yl)pyrimidine-5-carboxamido)oxy)tetrahydro-2H-pyran-3,4,5-triyl Triacetate] | + (S.I>1 (+)) |
| C[C@@H]1O[C@@H](ONC(=O)c2cnc(N3CCC(CNCc4cn(C)c5ccccc45)CC3)nc2)[C@@H](O)[C@H](O)[C@@H]1O [(120), 2-(4-((((l-Methyl-1H-indol-3-yl)methyl)amino)methyl)piperidin-1-yl)-N-(((2S,3S,4R,5S,6S)-3,4,5-trihydroxy-6-methyltetrahydro-2H-pyran-2-yl)oxy)pyrimidine-5-carboxamide] | + (S.I>1 (+)) |
| CCC(=O)O[C@H]1[C@H](OC(=O)CC)[C@H](ONC(=O)/C=C/c2ccc(CNCCc3c(C)[nH]c4ccccc34)cc2)O[C@@H](C)[C@H]1OC(=O)CC [(121), (2S,3R,4R,5S,6S)-2-Methyl-6-(((E)-3-(4-(((2-(2-methyl-1H-indol-3-yl)ethyl)amino)methyl)phenyl)acrylamido)oxy)tetrahydro-2H-pyran-3,4,5-triyl Tripropionate] | +++ (S.I>10 (+++)) |
| Cc1[nH]c2ccccc2c1CCNCc1ccc(/C=C/C(=O)NO[C@@H]2O[C@@H](C)[C@@H](OC(=O)C(C)C)[C@@H](OC(=O)C(C)C)[C@@H]2OC(=O)C(C)C)cc1 [(122), (2S,3R,4R,5S,6S)-2-Methyl-6-(((E)-3-(4-(((2-(2-methyl-1H-indol-3-yl)ethyl)amino)methyl)phenyl)acrylamido)oxy)tetrahydro-2H-pyran-3,4,5-triyl tris(2-methylpropanoate)] | + (S.I>1 (+)) |
| COc1ccc(-c2nc(N3CCOCC3)c3sc(CN(C)c4ncc(C(=O)NO[C@@H]5O[C@H](COC(C)=O)[C@H](OC(C)=O)[C@H](OC(C)=O)[C@H]5OC(C)=O)cn4)cc3n2)cn1 [(123), (2R,3S,4S,5R,6S)-2-(Acetoxymethyl)-6-((2-(((2-(6-methoxypyridin-3-yl)-4-morpholinothieno[3,2-d]pyrimidin-6-yl)methyl)(methyl)amino)pyrimidine-5-carboxamido)oxy)tetrahydro-2H-pyran-3,4,5-triyl Triacetate] | + (S.I>1 (+)) |
| COc1ccc(-c2nc(N3CCOCC3)c3sc(CN(C)c4ncc(C(=O)NO[C@@H]5O[C@H](CO)[C@H](O)[C@H](O)[C@H]5O)cn4)cc3n2)cn1 [(124), 2-(((2-(6-Methoxypyridin-3-yl)-4-morpholinothieno[3,2-d]pyrimidin-6-yl)methyl)(methyl)amino)-N-(((2S,3R,4S,5R,6R)-3,4,5-trihydroxy-6-(hydroxymethyl)tetrahydro-2H-pyran-2-yl)oxy)pyrimidine-5-carboxamide] | − (S.I.<1 (−)) |
| COc1ccc(-c2nc(N3CCOCC3)c3sc(CN(C)c4ncc(C(=O)NO[C@@H]5O[C@@H](C)[C@@H](OC(C)=O)[C@@H](OC(C)=O)[C@@H]5OC(C)=O)cn4)cc3n2)cn1 [(125), (2S,3S,4R,5R,6S)-2-((2-(((2-(6-Methoxypyridin-3-yl)-4-morpholinothieno[3,2-d]pyrimidin-6-yl)methyl)(methyl)amino)pyrimidine-5-carboxamido)oxy)-6-methyltetrahydro-2H-pyran-3,4,5-triyl Triacetate] | ++ (S.I.>5 (++)) |
| COc1ccc(-c2nc(N3CCOCC3)c3sc(CN(C)c4ncc(C(=O)NO[C@@H]5O[C@@H](C)[C@@H](O)[C@@H](O)[C@@H]5O)cn4)cc3n2)cn1 [(126), 2-(((2-(6-methoxypyridin-3-yl)-4-morpholinothieno[3,2-d]pyrimidin-6-yl)methyl)(methyl)amino)-N-(((2S,3S,4R,5S,6S)-3,4,5-trihydroxy-6-methyltetrahydro-2H-pyran-2-yl)oxy)pyrimidine-5-carboxamide] | − (S.I.<1 (−)) |
| CC(=O)O[C@H]1[C@H](OC(C)=O)[C@H](ONC(=O)c2cnc(N3CCC(CNCc4cn(C)c5ccccc45)CC3)nc2)O[C@@H](C)[C@H]1OC(C)=O [Compound (115), (2S,3R,4R,5S,6S)-2-Methyl-6-((2-(4-((((1-methyl-1H-indol-3-yl)methyl)amino)methyl)piperidin-1-yl)pyrimidine-5-carboxamido)oxy)tetrahydro-2H-pyran-3,4,5-triyl Triacetate] | +++ (S.I>10 (+++)) |
